Results on 7 compounds are retold here after patent US5393772A, “Use of, and method of treatment using, hydroxycarbazole compounds for inhibition of smooth muscle migration and proliferation” (Boehringer Mannheim Pharmaceuticals Corporation, priority 1993, dated 1995).

In one experiment the test system is rat aortic vascular smooth muscle cells. Nature of the experiment: PDGF-induced migration of rat aortic vascular smooth muscle cells (modified Boyden chamber, Transwell). The class given is cell-based. As to conditions: PDGF as chemoattractant, without inhibitor. Here is the method:
The procedure for assessing vascular smooth muscle cell migration was described previously in Hidaka, Y., Eda, T., Yonemoto, M. & Kamei, T. (1992) Atheroscler. 95, 87-94. Briefly, rat aortic vascular smooth muscle cells (passage 3) were suspended (1×10^6 cells/ml) in serum free DMEM supplemented with 0.2% (w/v) bovine serum albumin (Sigma). Migration assays were performed in modified Boyden chambers using Transwell (Costar, Cambridge, Mass.) cell culture chambers with a polycarbonate 8μm pore size membrane. PDGF was dissolved in DMEM and placed in the lower compartment in the presence, or absence, of compounds of Formula (I) wherein R1, R2, R3, R5, R6 or R8 are independently OH. Vascular smooth muscle cells (5×10^5) were then loaded in the upper compartment and incubated for 24 h at 37° C. in a humidified atmosphere containing 5% CO2. Non-migrated cells on the upper surface were scraped away gently and washed three times with PBS. Filters were fixed in methanol and stained with Giemsa. The number of vascular smooth muscle cells per 100×high power field (HPF) that had migrated to the lower surface of the filters was determined microscopically. Four HPFs were counted per filter. Experiments were performed either in duplicate or triplicate.
PDGF produced concentration-dependent increases in the migration of rat vascular smooth muscle cells with maximal effect obtained at a concentration of 1 nM. […] IC50 values for compounds of Formula (I) wherein R1, R2, R3, R5, R6 or R8 are independently OH were as follows.
In the case of PDGF, the “concentration of maximal effect on migration” value is recorded as 1 nM.

Still in this experiment, the particulars now being: Rattus norvegicus; PDGF-induced migration; 24 h at 37° C; by position of OH group.
Take `COc1cc(O)ccc1OCCNCC(O)COc1cccc2[nH]c3ccccc3c12` (stereo not shown) [R1]: the IC50 is 990 nM. This lies in the sub-micromolar range.
On the same count and under the same terms, the value for `COc1ccc(O)cc1OCCNCC(O)COc1cccc2[nH]c3ccccc3c12` (stereo not shown) [R2] was 410 nM; that for `COc1ccccc1OCCNCC(O)COc1c(O)ccc2[nH]c3ccccc3c12` (stereo not shown) [R3] was 200 nM.
On the same count and under the same terms, the value for `COc1ccccc1OCCNCC(O)COc1ccc(O)c2[nH]c3ccccc3c12` (stereo not shown) [R5] was 180 nM; that for `COc1ccccc1OCCNCC(O)COc1cccc2[nH]c3c(O)cccc3c12` (stereo not shown) [R6] was 1720 nM.
As to `COc1ccccc1OCCNCC(O)COc1cccc2[nH]c3ccc(O)cc3c12` (stereo not shown) [R8], inhibition was half-maximal at 360 nM (IC50). Against the preceding compound, the IC50 is about 4.8-fold lower.

By IC50 is commonly meant the concentration that inhibits the measured activity by half.
